Assay results published in ChEMBL document CHEMBL3272148, “Antitumor 1-(X-aryl)-3,3-dialkyltriazenes. 2. On the role of correlation analysis in decision making in drug modification. Toxicity quantitative structure-activity relationships of 1-(X-phenyl)-3,3-dialkyltriazenes in mice” (J Med Chem, 1978).

Test system: L1210
Assay: Antitumor activity against mouse L1210 cells allografted in mouse assessed as survival rate at 250 mg/kg relative to control
Format: functional
Details: not given

SMILES | T/C
NC(=O)c1nc[nH]c1/N=N/N1CCCC1 | 126%

Test system: L1210
Assay: Antitumor activity against mouse L1210 cells allografted in mouse assessed as survival rate at 200 mg/kg relative to control
Format: functional
Details: not given

SMILES | T/C
CCCCN(CC)/N=N/c1[nH]cnc1C(N)=O | 124%
CCN(CC)/N=N/c1n[nH]cc1C(N)=O | 144%

Test system: not listed separately
Assay: Half life of the compound at pH 7.4 at 37 degC in presence of serum
Format: physicochemical
Details: not given

SMILES | half-life
C/N=N/Nc1ccccc1 | 6 min

Test system: L1210
Assay: Antitumor activity against mouse L1210 cells allografted in mouse assessed as survival rate at 20 mg/kg relative to control
Format: functional
Details: not given

SMILES | T/C
Cc1n[nH]c(C)c1/N=N/N1CCOCC1 | 124%

Test system: L1210
Assay: Antitumor activity against mouse L1210 cells allografted in mouse assessed as survival rate at 265 mg/kg relative to control
Format: functional
Details: not given

SMILES | T/C
CCCN(CCC)/N=N/c1c(C)n[nH]c1C(=O)OC | 131%

Organism: Mus musculus
Assay: Toxicity in mouse assessed as concentration required for producing T/C of 140
Format: organism-based
Details: in vivo

SMILES | log(1/C)
CCN(CC)/N=N/c1[nH]cnc1C(N)=O | 2.75
CCCN(CCC)/N=N/c1[nH]cnc1C(N)=O | 2.7
CCCCN(CCCC)/N=N/c1[nH]cnc1C(N)=O | 2.91
CCCCCN(CCCCC)/N=N/c1[nH]cnc1C(N)=O | 3.49
CN(C)/N=N/c1[nH]cnc1C(N)=O [DACARBAZINE] | 2.44

Test system: L1210
Assay: Antitumor activity against mouse L1210 cells allografted in mouse assessed as survival rate at 100 mg/kg relative to control
Format: functional
Details: not given

SMILES | T/C
CCN(CC)/N=N/c1[nH]cnc1C(N)=O | 127%

Test system: L1210
Assay: Antitumor activity against mouse L1210 cells allografted in mouse assessed as survival rate at 450 mg/kg relative to control
Format: functional
Details: not given

SMILES | T/C
CCN(CC)/N=N/c1ccc[n+]([O-])c1 | 141%

Organism: Mus musculus
Assay: Toxicity in CDF1 mouse assessed as concentration required for producing T/C of 140
Format: organism-based
Details: in vivo

SMILES | log(1/C)
CCCCN(C)/N=N/c1ccc(C(N)=O)cc1 | 3.46
CCCCCCCCN(C)/N=N/c1ccc(C(N)=O)cc1 | 2.8
CN(C)/N=N/c1ccccc1 | 3.43
CN(C)/N=N/c1ccc(S(N)(=O)=O)cc1 | 3.2
CN(C)/N=N/c1ccc(C(F)(F)F)cc1 | 3.05
CN(C)/N=N/c1ccc(C#N)cc1 | 3.2
CN(C)/N=N/c1ccc(NC(N)=O)cc1 | 3.68
Cc1ccc(/N=N/N(C)C)cc1 | 3.26
COc1ccc(/N=N/N(C)C)cc1 | 3.55
CCN(C)/N=N/c1ccc(C(N)=O)cc1 | 3.24
CN(C)/N=N/c1ccc(C(N)=O)cc1 | 3.32
CN(C)/N=N/c1[nH]cnc1C(N)=O [DACARBAZINE] | 2.68

Organism: Rattus norvegicus
Assay: Toxicity in rat assessed as concentration required for producing T/C of 140
Format: organism-based
Details: in vivo

SMILES | log(1/C)
CN(C)/N=N/c1ccccc1 | 2.54
Cc1ccc(/N=N/N(C)C)cc1 | 2.62
CN(C)/N=N/c1ccc([N+](=O)[O-])cc1 | 2.06
COc1ccc(/N=N/N(C)C)cc1 | 2.72
CN(C)/N=N/c1ccc(I)cc1 | 2.68
CN(C)/N=N/c1ccc(Br)cc1 | 2.73
CN(C)/N=N/c1ccc(F)cc1 | 2.71
CN(C)/N=N/c1ccc(Cl)cc1 | 2.71

Test system: L1210
Assay: Antitumor activity against mouse L1210 cells allografted in mouse assessed as survival rate at 32 mg/kg relative to control
Format: functional
Details: not given

SMILES | T/C
CCCCN(CCCC)/N=N/c1cc(=O)[nH]c(=O)[nH]1 | 145%
